# From patent US9540646B2, “Cellular targets for HIV infection” (priority 2012, dated 2017)
# Entries after “also recorded” stand apart in the source; their conditions may differ.
# How the values were obtained:
# HIVADA [1] = assay: HIV replication in CD4+ T lymphocytes, HIV-p24 ELISA; type: cell-based, Human immunodeficiency virus-1 (HIV); details: supernatants each day for 7 days, 10Panx1 200 μM, scrPanx1 200 μM, siRNA 10 nM
# Protocol: (§1) HIV-infection and quantification of replication. Cell-free viral inocula were obtained from the National Institutes of Health AIDS Research and Reference Reagent Program. Three isolates were used: HIVADA, and HIVBal, two R5 isolates and HIVLAI, an X4 isolate, PBMCs and purified CD4+ T lymphocytes were isolated and activated with phytohemagglutinin (PHA; 5 μg/ml) plus interleukin (IL-2; 5%) in RPMI 1640 for 48 h in polypropylene tubes at a density of 2×10^6 […] PBMCs and CD4+ T lymphocytes were then infected by incubation for 24 h with viral stocks of HIVADA (20 ng p24/ml/1×10^6 cells), HIVLAI (20 ng p24/ml/1×10^6 cells) or HIVBal (0.001 MOI), washed thoroughly, resuspended in fresh medium, and maintained in polypropylene tubes. Uninfected control cells were activated with PHA plus IL-2 for 48 h, washed, and maintained in polypropylene tubes in fresh media without any virus. To determine the levels of HIV infection, the amount of HIV-p24 released into the medium was determined by ELISA (PerkinElmer, Boston, Mass.)
# Panx1 hemichannels [2] = target: T1, Panx1 hemichannels (Homo sapiens, UniProt Q96RD7); assay: HIV-induced ethidium (Etd) dye uptake, time lapse fluorescence imaging, in PBMCs and CD4+ T lymphocytes; type: cell-based; design: endogenous in cells; host or cells: primary human PBMCs and purified CD4+ T lymphocytes from leukopacks (New York Blood Center); details: PBMCs exposed to HIVADA; CD4+ T lymphocytes exposed to HIVADA, HIVBal or HIVLAI; 5 min and 72 h; Prob 500 μM, 10Panx1 200 μM, scrPanx1 200 μM, La3+ 200 μM, Cx43E2 1:500, siRNA 10 nM
# T1 sequence (Q96RD7 whole entry): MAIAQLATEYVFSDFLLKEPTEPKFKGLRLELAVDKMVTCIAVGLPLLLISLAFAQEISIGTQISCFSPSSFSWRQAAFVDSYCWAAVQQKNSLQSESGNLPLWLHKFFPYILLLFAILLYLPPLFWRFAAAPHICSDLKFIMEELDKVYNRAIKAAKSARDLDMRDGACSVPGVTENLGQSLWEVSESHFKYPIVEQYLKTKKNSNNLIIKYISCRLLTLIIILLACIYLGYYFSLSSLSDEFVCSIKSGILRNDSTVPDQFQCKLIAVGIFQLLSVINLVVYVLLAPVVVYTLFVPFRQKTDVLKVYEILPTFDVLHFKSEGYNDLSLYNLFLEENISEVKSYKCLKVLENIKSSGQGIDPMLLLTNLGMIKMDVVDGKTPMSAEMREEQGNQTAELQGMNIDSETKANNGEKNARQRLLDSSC
# Protocol: Isolation of human PBMCs and CD4+ T lymphocytes. Anticoagulated blood was obtained from leukopacks obtained from the New York Blood Center as described before (16). PBMCs were isolated by under-layering with Ficoll-Paque (Amersham Bioscience, Uppsala, Sweden) according to the procedure described by the manufacturer. Purified PBMC used in these studies were ˜10% monocytes and ˜90% lymphocytes and other hematopoietic cells, as determined by incubation with premixed human CD45 and CD14 monoclonal antibodies conjugated to FITC and PE, respectively (1:50, Caltag Laboratories, Burlingame, Calif.), followed by fluorescence-activated cell sorter analysis (FACS) as we previously described (17). To obtain a pure population of CD4+ T lymphocytes, monocytes were removed from PBMCs by using CD14 coupled magnetic beads and subsequently CD4+ T lymphocytes were isolated with CD4 coupled magnetic beads (Stem Cell Technologies, Vancouver, BC, Canada).
# as §1
# (§2) Dye uptake and time lapse fluorescence imaging. To characterize the functional state of Panx1 hemichannels, dye uptake experiments using ethidium (Etd) bromide were performed as previously described (18, 19). Cells were washed twice in Hank's balanced salt solution and then exposed to Locke's solution (containing: 154 mM NaCl, 5.4 mM KCl, 2.3 mM CaCl2, 5 mM HEPES and pH 7.4) with 5 μM Etd and time lapse microscopy was performed. Phase-contrast and fluorescence microscopy with time-lapse imaging were used to record cell appearance and fluorescence intensity changes in each condition. Fluorescence was recorded every 30 s. The NIH ImageJ program was used for off-line image analysis and fluorescence quantification. For data representation and calculation of Etd uptake slopes, the average of two independent background fluorescence intensity measurements (FB, expressed as arbitrary units, AU) was subtracted from fluorescence intensity′ in each cell (F1). Results of this calculation (F1-FB), for at least 20 cells, were averaged and plotted against time (expressed in minutes). Slopes were calculated using Microsoft Excel software and expressed as AU/min. Microscope and camera settings remained the same in all experiments. Dead cells were clearly identified during the time lapse microscopy due to their non specific Etd uptake (not inhibited by hemichannel blockers) and were not quantified.
# Panx1 hemichannels [3] = target: T1, Panx1 hemichannels; assay: Etd uptake in CD4+ T lymphocytes induced by chemokines or gp120; type: cell-based; design: endogenous in cells; host or cells: primary human PBMCs and purified CD4+ T lymphocytes from leukopacks (New York Blood Center); details: gp120 1 μg/ml, 5 min
# Protocol: as §2
# Panx1 hemichannels [4] = target: T1, Panx1 hemichannels; assay: HIV-induced Etd uptake in CD4+ T lymphocytes by flow cytometry (FACS); type: cell-based; design: endogenous in cells; host or cells: primary human PBMCs and purified CD4+ T lymphocytes from leukopacks (New York Blood Center); details: HIVADA, 5 min and 72 h
# Protocol: Flow cytometry. To measure Etd uptake in CD4+ T cell populations FACS analysis was performed of cells under control conditions or after HIV exposure at several time points. Etd uptake experiments were performed in CD4+ lymphocytes (3-5×10^5), and after the respective time of Etd uptake, cells were fixed with 2% paraformaldehyde for 30 min at room temperature, incubated with 1% BSA in PBS for 30 min and stained with CD4 antibody for 30 min at 4° C. For analyses of Etd positive populations, 10,000 events were acquired on a BD FACS Canto II and analyzed using FlowJo (Ashland, Oreg.) software as we previously described (17, 20).
# HIV = HIV replication in macrophage cultures, strain not named; type: cell-based; details: macrophage cultures; BBG concentration and strain not printed at the place
# Protocol: (§3) HIV replication: After 6 days in culture, macrophages in 48-well plates at a density of 10^5 cells per well were inoculated with 2-20 ng/ml HIVADA, 2 ng/ml HIVYU-2, or 0.2 ng/ml HIVBaL for 24 hours in the presence or absence of purinergic receptor inhibitors. 5 wells were inoculated per condition. After 24 hours, cells were washed with PBS and then cultured with media. Supernatants were collected and medium was changed every 24 hours until 7 days post inoculation (d.p.i.). When the inhibitors oATP, A-740003, MRS 2179, NF 279, BBG, or suramin, were used, they were added when the medium was changed every 24 hours. Viral replication was analyzed by HIV p24 ELISA (Advanced Bioscience Laboratories, Kensington, Md.) according to the manufacturer's instructions
# Macrophages = assay: Cell viability of macrophages, live/dead assay; type: cell-based; details: 100 μM, 24 hours
# Text: Cells were imaged using a Zeiss AxioObserver.D1 with an LD Plan-Neofluar 20×/0.4 air objective lens. Images were collected at room temperature through a Zeiss AxioCam MRm camera using Axiovision software.
# [5] = cited from earlier work
# HIVADA [6] = assay: HIV replication in primary human macrophages, HIV p24 ELISA; type: cell-based, Human immunodeficiency virus-1 (HIV)
# Text: (§4) Monocyte isolation and macrophage culture: Human monocytes were isolated from leukopaks obtained from the New York Blood Center. Peripheral blood mononuclear cells (PBMCs) were isolated by differential centrifugation using a Ficoll gradient (GE Healthcare, Piscataway, N.J.) and CD14 positive cells were isolated from PBMCs using CD14 monoclonal antibodies that were then bound by magnetic nanoparticles and separated using a magnetic field (Stem Cell Technologies, Vancouver, BC, Canada). Isolated CD14 positive cells were cultured adherently for 6 days in the presence of 10 ng/ml macrophage-colony stimulating factor (PeproTech, Rocky Hill, N.J.) in RPMI 1640 with 10% FBS, 5% human AB serum, 1% P/S, and 10 mM HEPES to differentiate the cells into macrophages.
# as §3
# HIVBaL = assay: as above; type: cell-based, Human immunodeficiency virus-1 (HIV); details: 100 μM oATP; according to d.p.i.; N=3
# Text: as §4, §3
# HIVYU-2 = assay: as above; type: cell-based, Human immunodeficiency virus-1 (HIV); details: 100 μM oATP; every d.p.i.; N=3
# Text: as §4, §3
# HIVADA [7] = assay: Immunofluorescence, percentage of HIV p24 positive macrophages; type: cell-based, Human immunodeficiency virus-1 (HIV); details: 100 μM oATP, 7 d.p.i.
# Protocol: Immunofluorescence: After 6 days in culture, macrophages cultured in 35 mm MatTek dishes at a density of 10^6 cells per dish were inoculated with 20 ng/ml HIVADA for 24 hours in the presence or absence of oATP. Two MatTek dishes were inoculated per condition. After 24 hours, cells were washed with PBS and cultured with media. Fresh oATP was added and the medium was changed every 24 hours until 7 d.p.i. Cells were then fixed using cold 70% ethanol for 20 minutes. Cells were washed with PBS and blocked using 0.9% fish gelatin, 50 μM EDTA. 1% horse serum, and 1% globulin-free albumin. The following primary antibodies were used: mouse monoclonal HIV p24 antibody from Abeam at a 1:50 dilution (Cambridge, Mass.) or mouse myeloma IgG1 (Sigma) as a negative control. Secondary antibody staining was with anti-mouse IgG F(ab)′2 fragment conjugated to FITC (Sigma). Actin was stained using Texas Red-X conjugated to phalloidin (Invitrogen, Eugene, Oreg.). ProLong Gold antifade reagent containing DAPI was added to all cells to stain for nuclei. Cells were imaged using a Zeiss AxioObserver.D1 with an LD Plan-Neofluar 20×/0.4 air objective lens. […] Images for 15 fields per condition were analyzed and percentage of p24 positive cells determined by counting number of nuclei in cells with green cytoplasmic staining.
# [8] = tested on: β-lactamase containing HIVBaL; assay: HIV Entry Assay (β-lactamase / CCF2-AM) in primary human macrophages; type: cell-based, Human immunodeficiency virus-1 (HIV); details: 100 μM; 4 hours; MOI 0.001-0.01; oATP N=5, others N=3
# Protocol: HIV Entry Assay: Primary human macrophages were cultured in black 96-well plates with a clear bottom (Corning Inc., Corning, N.Y.) at a density of 43,000 cells per well. After 7-8 days in culture, cells were inoculated with β-lactamase containing HIVBaL at a multiplicity of infection (MOI) of 0.01, 0.005, or 0.001 in the presence or absence of the purinergic receptor inhibitors oATP, NF 279, A-740003, or MRS 2179 for 4 hours. Beta-lactamase containing HIVBaL was generated as described previously (27). Briefly, HEK-293T cells were transfected using calcium phosphate with two plasmids, one containing the HIVBaL genome, pWT/BaL (NIH repository), the other containing β-lactamase fused to REV vpr, pMM310 (NIH repository). Cells were transfected for 16 hours and then supernatant was collected 24 and 48 hours following transfection. […] Viral stocks were generated by sucrose gradient purification of the transfection supernatants.
# Alter viral inoculation of primary human macrophages, cells were washed with phenol red-free DMEM (Gibco) then loaded with CCF2-AM for 6 hours at room temperature using the GeneBLAzer In Vivo Detection Kit (Invitrogen, Carlsbad, Calif.). CCF2-AM fluoresces green due to an internal fluorescence resonance energy transfer, but when cleaved by β-lactamase, this interaction is lost and the molecule fluoresces blue. Cells were imaged using an Olympus IX70 with a Plan 10×/0.25 air objective lens. Images were collected at room temperature through an Olympus E-620LS camera attached to the microscope through an OM adapter MF-1. Images were collected directly onto a memory card and there was no image processing following image collection. Images were collected for 8 fields in 4 separate wells per condition and percentage of cells positive for viral entry was determined by counting the number of blue cells (cells that virus had entered) as compared to the total number of blue and green cells.
# purinergic receptors = details: in vivo mouse model; reference 99; cited from earlier work
compound,measurement,setting,value
FADRYWAQVS (scrambled peptide) [scrPanx1],HIV replication (HIV-p24 release into the media),HIVADA [1],did not alter
same,Etd uptake (rate) induced by the virus,Panx1 hemichannels [2],did not affect
same,"gp120-induced Etd uptake, in presence of blockers",Panx1 hemichannels [3],No effects
WRQAAFVDSY (Panx1 mimetic blocking peptide) [10Panx1],HIV replication (HIV-p24 release into the media),HIVADA [1],abolished HIV replication to almost control undetectable levels; also recorded: dramatically reduced
same,Etd uptake (rate) induced by the virus,Panx1 hemichannels [2],completely blocked; also recorded: completely reduced
same,"Etd uptake induced by the virus, analyzed by FACS",Panx1 hemichannels [4],reduced Etd uptake; also recorded: reduced to control conditions (100%)
same,"gp120-induced Etd uptake, in presence of blockers",Panx1 hemichannels [3],inhibited
"CCOc1ccc(Nc2ccc(/C(=C3C=C/C(=[N+](/CC)Cc4cccc(S(=O)(=O)[O-])c4)C=C/3C)c3ccc(N(CC)Cc4cccc(S(=O)(=O)[O-])c4)cc3C)cc2)cc1.[Na+] [BBG, brilliant blue G]",inhibition of viral replication relative to cultures infected with HIV only,HIV,54-90%
same,cell viability (live/dead assay),Macrophages,None of the antagonist caused any decrease in cell viability
same,recovery after spinal cord injury,"[5]; rat model of traumatic spinal cord injury, reference 75",recovery of motor function and limited inflammation following spinal cord injury
same,toxicity in vivo,"[5]; rat, in vivo",without any toxicity
"Nc1ncnc2c1ncn2[C@@H](C=O)O[C@@H](C=O)COP(=O)(O)OP(=O)(O)OP(=O)(O)O [oATP, oxidized ATP]",effect on HIVADA p24 production,"HIVADA [6]; 1 μM oATP, N=5",no effect
same,inhibition of HIVADA p24 production relative to HIV only,"HIVADA [6]; 10 μM oATP, depending upon d.p.i., N=5",50-85%
same,HIVADA replication reduced (HIV p24) relative to HIV only,"HIVADA [6]; 100 μM oATP, depending upon the d.p.i., up to 7 d.p.i., N=10",92-99%
same,HIVBaL replication reduced relative to HIV only,HIVBaL,89-97%
same,HIVYU-2 replication reduced relative to HIV only,HIVYU-2,over 99%
same,cell viability (live/dead assay),Macrophages,None of the antagonist caused any decrease in cell viability; also recorded: did not reduce cell viability
same,decrease in the percentage of HIV p24 positive cells,"HIVADA [7]; 20 ng/ml HIVADA, N=3",92%
same,multinucleated giant cells in cultures,"HIVADA [7]; HIVADA, compared to HIV infected cultures",very few multinucleated giant cells were detected
same,reduction in viral entry (percentage of cells with viral entry) relative to HIV only,[8],57%
same,onset of diabetes and inflammatory bowel disease,purinergic receptors,can prevent the onset of diabetes and inflammatory bowel disease
